Some test systems named below: OVCAR-5 ovarian; HOP-92 NSCLC; A549 NSCLC; IGROV1 ovarian; LOX IMVI melanoma; CCRF-CEM leukemia; KM12 colon; HCT-116 colon; ACHN renal; SK-MEL-5 melanoma.
Common to all, as to assay: DTP human tumour cell line panel, 48 h

Structures are written as SMILES.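 All cell lines were grown in 96-well plates and treated with compound for 48 hours. GI50 marks 50% less growth. TGI: concentration producing complete growth inhibition.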 A value given as a limit tells only on which side of the number the result lay.

This note sets out measurements from PubChem BioAssay (NCI).

With `c1ccc2c(-c3nc4ccccc4[nH]3)cccc2c1`, the GI50 in the test with OVCAR-5 ovarian was 8.35 µM; in the test with HOP-92 NSCLC it was 4.27 µM; in the test with A549 NSCLC, 4.36 µM; in the test on IGROV1 ovarian it was 5.01 µM; in the test with LOX IMVI melanoma, 7.11 µM; with CCRF-CEM leukemia, 2.54 µM. The GI50 in the test with KM12 colon is 2.26 µM; in the test on HCT-116 colon it was 3.47 µM; in the test with ACHN renal, 7.97 µM; in the test with SK-MEL-5 melanoma, 4.28 µM. In addition, the TGI with OVCAR-5 ovarian is > 100 µM; in the test on HOP-92 NSCLC, 38.2 µM; in the test on A549 NSCLC, > 100 µM; in the test on IGROV1 ovarian it was 40.3 µM; in the test with LOX IMVI melanoma it was > 100 µM; in the test with CCRF-CEM leukemia, 7.81 µM. Further, the TGI in the test on KM12 colon was > 100 µM; in the test on HCT-116 colon, 96.8 µM; in the test with ACHN renal it was > 100 µM; in the test on SK-MEL-5 melanoma, 72.4 µM.
Regarding `COc1cc(/C=C/C(=O)C(C(=O)/C=C/c2ccc(OC(=O)CCNc3nnc(C)s3)c(OC)c2)C(=O)CCNc2nnc(C)s2)ccc1OC(=O)CCNc1nnc(C)s1`, the GI50 in the test on OVCAR-5 ovarian is 2.89 µM; in the test with HOP-92 NSCLC it was 2.48 µM; in the test with A549 NSCLC, 2.7 µM; in the test on IGROV1 ovarian, 1.98 µM; in the test on LOX IMVI melanoma it was 1.89 µM; with CCRF-CEM leukemia, 1.09 µM. Moreover, the GI50 in the test with KM12 colon is 1.63 µM; in the test on HCT-116 colon it was 1.65 µM; in the test on ACHN renal, 2.28 µM; with SK-MEL-5 melanoma, 1.87 µM. In addition, the TGI stood at 7.12 µM with OVCAR-5 ovarian; 8.4 µM in the test on HOP-92 NSCLC; 7.87 µM in the test with A549 NSCLC; 4.47 µM with IGROV1 ovarian; 3.84 µM in the test with LOX IMVI melanoma; 2.51 µM in the test on CCRF-CEM leukemia. In addition, the TGI with KM12 colon was found to be 3.18 µM; in the test with HCT-116 colon, 3.81 µM; in the test with ACHN renal it was 5.22 µM; in the test on SK-MEL-5 melanoma, 4.52 µM.
As for `COc1ccc(Cn2cc3c(c2-c2ccc(O)cc2)CCc2cnoc2-3)cc1`, the GI50 was 0.829 µM with OVCAR-5 ovarian; 13.9 µM in the test with HOP-92 NSCLC; 0.477 µM in the test on A549 NSCLC; 0.578 µM in the test on IGROV1 ovarian; 0.713 µM in the test on LOX IMVI melanoma; 0.304 µM in the test on CCRF-CEM leukemia. In addition, the GI50 in the test on KM12 colon is 0.241 µM; with HCT-116 colon, 0.422 µM; in the test with ACHN renal, 0.956 µM; with SK-MEL-5 melanoma it was 0.315 µM. Besides, the TGI was 21.6 µM in the test on OVCAR-5 ovarian; 33.4 µM in the test on HOP-92 NSCLC; 18.4 µM with A549 NSCLC; 23.6 µM in the test on IGROV1 ovarian; 18.8 µM with LOX IMVI melanoma; 4.2 µM in the test on CCRF-CEM leukemia. For the same compound, the TGI in the test on KM12 colon was determined as 10.4 µM; with HCT-116 colon, 14.7 µM; in the test on ACHN renal, 19.5 µM; with SK-MEL-5 melanoma, 12.6 µM.
Take `O=C(Nc1cccnc1)c1cccc([N+](=O)[O-])c1`: the GI50 with OVCAR-5 ovarian, with HOP-92 NSCLC, with A549 NSCLC, in the test on IGROV1 ovarian, in the test with LOX IMVI melanoma and in the test on CCRF-CEM leukemia was > 100 µM each time. For the same compound, the GI50 in the test with KM12 colon, with HCT-116 colon, in the test with ACHN renal and in the test with SK-MEL-5 melanoma was > 100 µM in each case. For the same compound, the TGI in the test on OVCAR-5 ovarian, in the test on HOP-92 NSCLC, in the test on A549 NSCLC, in the test on IGROV1 ovarian, in the test with LOX IMVI melanoma and in the test with CCRF-CEM leukemia was > 100 µM each time. Further, the TGI in the test with KM12 colon, with HCT-116 colon, with ACHN renal and in the test with SK-MEL-5 melanoma was > 100 µM in each case.
For the compound `O[C@@H]1CCCN1Cc1cc2cc3c(cc2c2cc(OCc4ccccc4)ccc12)OCO3`, the GI50 is 5.64 µM in the test on OVCAR-5 ovarian; 1.53 µM in the test with HOP-92 NSCLC; 3.69 µM in the test with A549 NSCLC; 5.48 µM in the test with IGROV1 ovarian; 1.8 µM in the test with LOX IMVI melanoma; 4.35 µM in the test with CCRF-CEM leukemia. For the same compound, the GI50 was 3.2 µM in the test on KM12 colon, 2.1 µM with HCT-116 colon, 8.37 µM in the test on ACHN renal and 1.78 µM in the test with SK-MEL-5 melanoma. Moreover, the TGI in the test with OVCAR-5 ovarian worked out at 21.2 µM; in the test on HOP-92 NSCLC, 5.36 µM; in the test on A549 NSCLC it was 14.8 µM; in the test on IGROV1 ovarian, 20.1 µM; in the test with LOX IMVI melanoma, 3.44 µM; in the test on CCRF-CEM leukemia, 14.4 µM. Moreover, the TGI came to 8.95 µM in the test with KM12 colon, 5.16 µM in the test with HCT-116 colon, 22 µM in the test with ACHN renal and 3.5 µM in the test on SK-MEL-5 melanoma.
As for `CO/N=C(\COc1ccc2c(c1)oc(=O)c1cc(OC)ccc12)c1cccc(OC)c1`, the GI50 with OVCAR-5 ovarian, in the test on HOP-92 NSCLC, in the test with A549 NSCLC, in the test on IGROV1 ovarian, in the test with LOX IMVI melanoma and in the test on CCRF-CEM leukemia was > 100 µM throughout. Also, the GI50 in the test on KM12 colon, in the test on HCT-116 colon and in the test with SK-MEL-5 melanoma was > 100 µM throughout. The TGI with OVCAR-5 ovarian, in the test on HOP-92 NSCLC, in the test with A549 NSCLC, in the test with IGROV1 ovarian, in the test with LOX IMVI melanoma and in the test with CCRF-CEM leukemia was > 100 µM throughout. Besides, the TGI with KM12 colon, in the test on HCT-116 colon and with SK-MEL-5 melanoma was > 100 µM each time.
In the case of `CC(=O)OC1(C#N)CC2OC1C1C2N1C(=O)OC(C)(C)C` (stereo not given), the TGI with OVCAR-5 ovarian, in the test on HOP-92 NSCLC, in the test on A549 NSCLC, in the test on IGROV1 ovarian, in the test on LOX IMVI melanoma and in the test with CCRF-CEM leukemia was > 100 µM in each case. For the same compound, the TGI in the test on HCT-116 colon, with ACHN renal and with SK-MEL-5 melanoma was > 100 µM in each case.
Turning to `O=C1Nc2ccccc2/C1=C/c1cn(C(=O)c2c(Cl)cccc2Cl)c2ccccc12`, the GI50 in the test with OVCAR-5 ovarian was 8.85 µM; in the test on HOP-92 NSCLC, 1.54 µM; in the test on A549 NSCLC it was 3.23 µM; with LOX IMVI melanoma, 1.59 µM; in the test on CCRF-CEM leukemia, 0.337 µM; in the test on KM12 colon, 1.76 µM. For the same compound, the GI50 in the test on HCT-116 colon was 1.67 µM; with ACHN renal, 3.17 µM; with SK-MEL-5 melanoma, 7.52 µM. Further, the TGI amounted to 50.1 µM in the test with OVCAR-5 ovarian; 6.33 µM in the test with HOP-92 NSCLC; 17.6 µM with A549 NSCLC; 3.24 µM with LOX IMVI melanoma; 15.6 µM with CCRF-CEM leukemia; 3.95 µM with KM12 colon. Also, the TGI came to 3.38 µM in the test on HCT-116 colon, 21.7 µM with ACHN renal and 20.4 µM in the test on SK-MEL-5 melanoma.

Usually GI50 stands for the concentration that inhibits growth by half. The term TGI denotes the concentration giving total growth inhibition.
